Results from patent US20150148405A1, “Expression Construct for a Lin28-Resistant Let-7 Precursor MicroRNA” (THE JOHNS HOPKINS UNIVERSITY, priority 2012, published 2015).
Numbered stars: 1 amine (or outer) side, 2 acyl side, 3 side chain; on linkers, the order of the positions; unused ones are H or OH. Bridge positions count the residues as written; N and C are the ends. Square brackets hold non-standard residues; d marks the D form. Peptide text beside a SMILES is read from it. I, II: the chains in the order shown. Actinocin(9to1) = Cc1c2oc3c(C)ccc(C(=O)[*:1])c3nc-2c(C(=O)[*:2])c(N)c1=O; NMeV = CN[C@H](C(=O)O)C(C)C; Sar = CNCC(=O)O

Legend:
Assay type in all cases: cell-based, mouse
BDNF targets = assay: Immunoblotting for BDNF target proteins with or without Actinomycin-D; settings: Actinomycin-D 0.5 μg/mL added 10 min before stimulation
Protocol: […] Bath application of BDNF (100 ng/mL) was for designated periods (5 min-2 hours). The cultures were washed 3 times and harvested on ice with lysis buffer (50 mM Hepes, 150 mM NaCl, 10% Glycerol, 1 mM EDTA, 1% Triton-X-100, 0.2% SDS) plus freshly added protease inhibitor cocktail (Roche) and PMSF. Protein concentration was determined by Bradford Assay. If required, lysates were treated with Lambda Protein Phosphatase according to manufacturer's instructions (New England Biolabs P0753S). Equal amounts of lysate protein were resolved on SDS-PAGE gels, and electrotransferred to PVDF membrane. Membrane was blocked with 5% milk in Tris-buffered saline tween 20 (TBST) and probed with primary antibodies in 5% milk or BSA in TBST: GluR1 (Millipore AB1504), CaMKIIα (Zymed 13-7300), Homer2 (gift of P. Worley), KCC2 (Upstate 07-432), Kv1.1 (NeuroMab 73-007), β-tubulin (U. Iowa DSHB, clone E-7), GAPDH (gift of S. Snyder), GW182 (18033 gift of M. Fritzler or Abcam ab84403), Dcp1a (gift of J. Lykke-Andersen or NeuroMab clone3G4), phospho-ERK ½ (Sigma M 7802), Dicer (NeuroMab clone N167/7), TRBP (Abeam ab72110), Lin28a (Cell Signaling A177), Lin28b (gift of E. Moss or Cell Signaling 5422), Arc (SantaCruz 17839), mCherry (Clontech 632496), GFP (NeuroMab N86/8).

cultured neurons = assay: 35S-labelling total protein synthesis; settings: mock or BDNF 100 ng/mL 2 hours, Actinomycin-D
Protocol: Cultured neurons were pre-incubated in media containing reduced-serum and Actinomycin-D as previously described, followed by washing and incubation for 10 min with methionine- and cysteine-free DMEM (Mediatech, Inc.), and ^35S labeling in the same DMEM with the addition of ^355-methionine/cysteine (^35S Met/Cys EasyTag Mix, Perkin Elmer) to a final concentration of […]. Mock- or BDNF stimulation was for 2 hours. Cells were washed and lysed with lysis buffer (see immunoblotting). Lysates were centrifuged and collected supernatants subjected to Bradford assay. To assess newly synthesized proteins, 200-500 μg of lysates proteins were precipitated with 10% trichloroacetic acid (TCA) for 1 hour on ice in the presence of 0.5% deoxycholate (DOC) to remove interfering phenol red. After centrifugation, protein pellets were washed with ice-cold 95% ethanol, solubilized in denaturing buffer ([…] Tris pH 8.3, 5 mM EDTA, 0.05% SDS, 6M urea), and subjected to liquid scintillation counting (Econofluor, New England Nuclear, Inc.). ^35S Disintegration per minute (DPM) was used to quantitate protein synthesis after subtraction of background readings.

[1] = tested on: hippocampal pyramidal neurons; assay: Live cell imaging of P-body numbers (GFP-Dcp1a); settings: 15 μM
Protocol: Dissociated hippocampal cultures were prepared from postnatal day 0 (P0) mice as previously described (Meffert et al., 2003). Knockdown was by lentiviral-mediated delivery of shRNA to cultures at multiplicity of infection of 5-10, 48 hr before imaging or 4-5 days for GW182. Cultures were preincubated 10-20 min and mock- or BDNF-stimulated (100 ng/mL BDNF) in the presence of Actinomycin-D (0.5 μg/mL), unless indicated otherwise.
Confocal images of hippocampal pyramidal neurons were acquired on either a Yokogawa spinning disk (Zeiss) at 37° C. (live cells), or a LSM5 Pascal system (fixed cells). Laser power and exposure time were adjusted to minimize photobleaching and avoid saturation. […]
Dissociated hippocampal cultures were prepared from postnatal day 0 (P0) mice as previously described (Meffert et al., 2003) and were maintained in Neurobasal A medium (Gibco, 10888) with B27 Supplement (Gibco 17504-44). […] For live cell imaging, confocal images of hippocampal pyramidal neurons (excitatory, determined by morphology) in 0.24-0.3 μm Z sections were acquired using a 40×, 1.3 NA, EC Plan Neofluoar (whole cells) or a 100×, 1.4 NA Plan Apochromat oil immersion objective (dendrites) on a Yokogawa spinning disk system (Cell Observer, Carl Zeiss) at 37° C. in Tyrodes buffer (in mM: 119 NaCl, 5 KCl, 2 CaCl2, 0.2 MgCl2, Glucose, 25 Hepes, 0.01 Glycine, pH 7.4). […]

Row | SMILES | BDNF-induced protein synthesis of BDNF targets (BDNF targets) | total protein synthesis (35S incorporation) (cultured neurons) | P-body numbers in neuronal soma and dendrites [1]
1 | Cc1c2oc3c(C)ccc(C(=O)N[C@@H]4C(=O)N[C@H](C(C)C)C(=O)N5CCC[C@H]5C(=O)N(C)CC(=O)N(C)[C@@H](C(C)C)C(=O)O[C@@H]4C)c3nc-2c(C(=O)N[C@@H]2C(=O)N[C@H](C(C)C)C(=O)N3CCC[C@H]3C(=O)N(C)CC(=O)N(C)[C@@H](C(C)C)C(=O)O[C@@H]2C)c(N)c1=O [Actinomycin-D] (I: T[dV]P[Sar][NMeV] / II: T[dV]P[Sar][NMeV]; ester I:1-I:C, II:1-II:C; linker I:N-II:N via Actinocin(9to1)) | does not alter BDNF-induced protein synthesis | – | –
2 | CCn1cc(C(=O)O)c(=O)c2cc(F)c(N3CCNCC3)nc21 [Enoxacin, enoxacin] | – | did not alter basal or BDNF-induced total protein synthesis | rapidly and robustly increased P-body numbers
3 | CCn1cc(C(=O)O)c(=O)c2cc3c(cc21)OCO3 [oxolinic acid] | – | does not alter total cellular protein synthesis | –
